Measured values published in PubChem BioAssay AID2060897 (Molecular Pharmacology Branch, DTP, NCI, 2025).

Test system: 966289-007-R4-J1-PDC complex spheroid viability
Assay: Anticancer human tumor 966289-007-R4-J1-PDC patient-derived pancreatic adenocarcinoma cell line growth inhibition [RAS]
Conditions: for viability, T/C: stronger effect = lower value; active = viability on the fitted dose curve at most 10% of control; inactive = the rest
Method in brief: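 Multi-cell-type spheroids: tumor cells plus HUVEC endothelial cells and mesenchymal stem cells. RAS-pathway inhibitors were combined with targeted agents, each dosed in half-log steps down from clinical Cmax, or from 10 microM when Cmax was unknown.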

[1] = curve of first compound, second compound 0.000949 µM
[2] = curve of first compound, second compound 0.003 µM
[3] = curve of first compound, second compound 0.00949 µM
[4] = curve of first compound, second compound 0.03 µM
[5] = curve of first compound, second compound 0.0949 µM
[6] = curve of first compound, second compound 0.3 µM
[7] = second compound 0.000949 µM, first compound 0.0316 µM
[8] = second compound 0.000949 µM, first compound 0.1 µM
[9] = second compound 0.000949 µM, first compound 0.316 µM
[10] = second compound 0.000949 µM, first compound 1 µM
[11] = second compound 0.003 µM, first compound 0.0316 µM
[12] = second compound 0.003 µM, first compound 0.1 µM
[13] = second compound 0.003 µM, first compound 0.316 µM
[14] = second compound 0.003 µM, first compound 1 µM
[15] = second compound 0.00949 µM, first compound 0.0316 µM
[16] = second compound 0.00949 µM, first compound 0.1 µM
[17] = second compound 0.00949 µM, first compound 0.316 µM
[18] = second compound 0.00949 µM, first compound 1 µM
[19] = second compound 0.03 µM, first compound 0.0316 µM
[20] = second compound 0.03 µM, first compound 0.1 µM
[21] = second compound 0.03 µM, first compound 0.316 µM
[22] = second compound 0.03 µM, first compound 1 µM
[23] = second compound 0.0949 µM, first compound 0.0316 µM
[24] = second compound 0.0949 µM, first compound 0.1 µM
[25] = second compound 0.0949 µM, first compound 0.316 µM
[26] = second compound 0.0949 µM, first compound 1 µM
[27] = second compound 0.3 µM, first compound 0.0316 µM
[28] = second compound 0.3 µM, first compound 0.1 µM
[29] = second compound 0.3 µM, first compound 0.316 µM
[30] = second compound 0.3 µM, first compound 1 µM
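Note: spheroids exposed to agents for one week before readout.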
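Throughout, for viability, T/C: percent viability relative to DMSO vehicle control wells as 100%.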

CCC(CC)c1cc(NC2CCC(N)C2)n2nccc2n1 (stereo not drawn) + CCn1c(-c2cc(N3CCN(C)CC3)cnc2C(C)OC)c2c3cc(ccc31)-c1csc(n1)CC(NC(=O)C1CC1C)C(=O)N1CCCC(N1)C(=O)OCC(C)(C)C2
1.85 µM: IC50 [5]
1.43 µM: IC50 [1]
1.79 µM: IC50 [3]
1.66 µM: IC50 [4]
1.86 µM: IC50 [6]
inactive: viability, T/C [7] 111% | viability, T/C [8] 89.1% | viability, T/C [9] 99.3% | viability, T/C [10] 71.5% | viability, T/C [11] 72.2% | viability, T/C [12] 98.3% | viability, T/C [13] 89.2% | viability, T/C [14] 79.2% | viability, T/C [15] 81.7% | viability, T/C [16] 103% | viability, T/C [17] 81.9% | viability, T/C [18] 131% | viability, T/C [19] 72.3% | viability, T/C [20] 86.8% | viability, T/C [21] 92.5% | viability, T/C [22] 98.9% | viability, T/C [23] 86.2% | viability, T/C [24] 111% | viability, T/C [25] 107% | viability, T/C [26] 119% | viability, T/C [27] 75.7% | viability, T/C [28] 116% | viability, T/C [29] 116% | viability, T/C [30] 117%
1.55 µM: IC50 [2]
active: viability, T/C (second compound 0.000949 µM, first compound 3.16 µM) 1.75% | viability, T/C (second compound 0.000949 µM, first compound 10 µM) 1.38% | viability, T/C (second compound 0.003 µM, first compound 3.16 µM) 2.05% | viability, T/C (second compound 0.003 µM, first compound 10 µM) 1.33% | viability, T/C (second compound 0.00949 µM, first compound 3.16 µM) 1.93% | viability, T/C (second compound 0.00949 µM, first compound 10 µM) 1.58% | viability, T/C (second compound 0.03 µM, first compound 3.16 µM) 1.68% | viability, T/C (second compound 0.03 µM, first compound 10 µM) 2.28% | viability, T/C (second compound 0.0949 µM, first compound 3.16 µM) 1.88% | viability, T/C (second compound 0.0949 µM, first compound 10 µM) 1.55% | viability, T/C (second compound 0.3 µM, first compound 3.16 µM) 2.08% | viability, T/C (second compound 0.3 µM, first compound 10 µM) 1.97%

C=CC(=O)N1CCN(c2nc(OCC3CCCN3C)nc3c(F)c(-c4nc(N)cc(C)c4C(F)(F)F)c(Cl)cc23)C(C)C1 (stereo not drawn)
> 1 µM: IC50 (compound alone, run of 06/10/2024) | IC50 (curve of compound)

C=CC(=O)Nc1cc(Nc2nccc(-c3cn(C)c4ccccc34)n2)c(OC)cc1N(C)CCN(C)C + CCn1c(-c2cc(N3CCN(C)CC3)cnc2C(C)OC)c2c3cc(ccc31)-c1csc(n1)CC(NC(=O)C1CC1C)C(=O)N1CCCC(N1)C(=O)OCC(C)(C)C2
> 1 µM: IC50 [1] | IC50 [2] | IC50 [3] | IC50 [4] | IC50 [5] | IC50 [6]
inactive: viability, T/C (second compound 0.000949 µM, first compound 0.00316 µM) 88% | viability, T/C (second compound 0.000949 µM, first compound 0.01 µM) 88.8% | viability, T/C [7] 116% | viability, T/C [8] 69.1% | viability, T/C [9] 83.5% | viability, T/C [10] 75.5% | viability, T/C (second compound 0.003 µM, first compound 0.00316 µM) 90.7% | viability, T/C (second compound 0.003 µM, first compound 0.01 µM) 92.2% | viability, T/C [11] 80.2% | viability, T/C [12] 82.7% | viability, T/C [13] 110% | viability, T/C [14] 79.3% | viability, T/C (second compound 0.00949 µM, first compound 0.00316 µM) 111% | viability, T/C (second compound 0.00949 µM, first compound 0.01 µM) 87.6% | viability, T/C [15] 98.8% | viability, T/C [16] 78.7% | viability, T/C [17] 92.9% | viability, T/C [18] 94.7% | viability, T/C (second compound 0.03 µM, first compound 0.00316 µM) 74.4% | viability, T/C (second compound 0.03 µM, first compound 0.01 µM) 71.4% | viability, T/C [19] 100% | viability, T/C [20] 88.4% | viability, T/C [21] 120% | viability, T/C [22] 96.8% | viability, T/C (second compound 0.0949 µM, first compound 0.00316 µM) 86% | viability, T/C (second compound 0.0949 µM, first compound 0.01 µM) 111% | viability, T/C [23] 98.1% | viability, T/C [24] 114% | viability, T/C [25] 88.2% | viability, T/C [26] 101% | viability, T/C (second compound 0.3 µM, first compound 0.00316 µM) 102% | viability, T/C (second compound 0.3 µM, first compound 0.01 µM) 89.6% | viability, T/C [27] 103% | viability, T/C [28] 143% | viability, T/C [29] 123% | viability, T/C [30] 103%

C=CC(=O)Nc1cc(Nc2nccc(-c3cn(C)c4ccccc34)n2)c(OC)cc1N(C)CCN(C)C + C=CC(=O)N1CCN(c2nc(OCC3CCCN3C)nc3c(F)c(-c4nc(N)cc(C)c4C(F)(F)F)c(Cl)cc23)C(C)C1
> 1 µM: IC50 (curve of first compound, second compound 0.00316 µM) | IC50 (curve of first compound, second compound 0.01 µM) | IC50 (curve of first compound, second compound 0.0316 µM) | IC50 (curve of first compound, second compound 0.1 µM) | IC50 (curve of first compound, second compound 0.316 µM) | IC50 (curve of first compound, second compound 1 µM)
inactive: viability, T/C (second compound 0.00316 µM, first compound 0.00316 µM) 102% | viability, T/C (second compound 0.00316 µM, first compound 0.01 µM) 105% | viability, T/C (second compound 0.00316 µM, first compound 0.0316 µM) 101% | viability, T/C (second compound 0.00316 µM, first compound 0.1 µM) 104% | viability, T/C (second compound 0.00316 µM, first compound 0.316 µM) 104% | viability, T/C (second compound 0.00316 µM, first compound 1 µM) 71.7% | viability, T/C (second compound 0.01 µM, first compound 0.00316 µM) 95.6% | viability, T/C (second compound 0.01 µM, first compound 0.01 µM) 100% | viability, T/C (second compound 0.01 µM, first compound 0.0316 µM) 85.5% | viability, T/C (second compound 0.01 µM, first compound 0.1 µM) 97.7% | viability, T/C (second compound 0.01 µM, first compound 0.316 µM) 97.9% | viability, T/C (second compound 0.01 µM, first compound 1 µM) 71.8% | viability, T/C (second compound 0.0316 µM, first compound 0.00316 µM) 105% | viability, T/C (second compound 0.0316 µM, first compound 0.01 µM) 102% | viability, T/C (second compound 0.0316 µM, first compound 0.0316 µM) 97.9% | viability, T/C (second compound 0.0316 µM, first compound 0.1 µM) 98.7% | viability, T/C (second compound 0.0316 µM, first compound 0.316 µM) 97.3% | viability, T/C (second compound 0.0316 µM, first compound 1 µM) 78.8% | viability, T/C (second compound 0.1 µM, first compound 0.00316 µM) 117% | viability, T/C (second compound 0.1 µM, first compound 0.01 µM) 103% | viability, T/C (second compound 0.1 µM, first compound 0.0316 µM) 101% | viability, T/C (second compound 0.1 µM, first compound 0.1 µM) 97.4% | viability, T/C (second compound 0.1 µM, first compound 0.316 µM) 85.4% | viability, T/C (second compound 0.1 µM, first compound 1 µM) 83.9% | viability, T/C (second compound 0.316 µM, first compound 0.00316 µM) 104% | viability, T/C (second compound 0.316 µM, first compound 0.01 µM) 112% | viability, T/C (second compound 0.316 µM, first compound 0.0316 µM) 118% | viability, T/C (second compound 0.316 µM, first compound 0.1 µM) 98.5% | viability, T/C (second compound 0.316 µM, first compound 0.316 µM) 84.6% | viability, T/C (second compound 0.316 µM, first compound 1 µM) 78.9% | viability, T/C (second compound 1 µM, first compound 0.00316 µM) 102% | viability, T/C (second compound 1 µM, first compound 0.01 µM) 95.5% | viability, T/C (second compound 1 µM, first compound 0.0316 µM) 95.3% | viability, T/C (second compound 1 µM, first compound 0.1 µM) 100% | viability, T/C (second compound 1 µM, first compound 0.316 µM) 96% | viability, T/C (second compound 1 µM, first compound 1 µM) 67.6%
